Reference: the supplement of paper PMC10307832

What was measured:
Assay in all cases: relative viability (nuclei count vs DMSO), 5 days (fraction); higher = more cells survive
Mirin + Navitoclax = compound: N=C1NC(=O)/C(=C/c2ccc(O)cc2)S1 [Mirin] + CC1(C)CCC(c2ccc(Cl)cc2)=C(CN2CCN(c3ccc(C(=O)NS(=O)(=O)c4ccc(N[C@H](CCN5CCOCC5)CSc5ccccc5)c(S(=O)(=O)C(F)(F)F)c4)cc3)CC2)C1 [Navitoclax] (partner 0.5 µM)
How it was run: (§1)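 For relative viability, nuclei counts in treated wells were divided by those in vehicle wells. Lung cancer cell lines had been pin-tool dosed in 1536-well plates the day after seeding and cultured for 5 days, then fixed and stained in one step (final 0.05% Triton X-100, 1% formaldehyde, 1 ug/ml Hoechst) and imaged at 4×. Doses were one drug alone or a fixed anchor-drug dose plus five library-drug doses (not always all listed) in √10 steps, and values are duplicate-plate medians.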

Mirin + Olaparib = compound: N=C1NC(=O)/C(=C/c2ccc(O)cc2)S1 [Mirin] + O=C(c1cc(Cc2n[nH]c(=O)c3ccccc23)ccc1F)N1CCN(C(=O)C2CC2)CC1 [Olaparib] (partner 8 µM)
How it was run: as §1

[1] = compound: CCC1=CN=CN=C1N2CCN(CC2)CC3=NC4=C(N3)C=C(C=C4)C(F)(F)F + COc1cccc2cc(-c3nc([C@H]4CC[C@H](C(=O)O)CC4)n4ncnc(N)c34)[nH]c12 [OSI-027] (partner 0.5 µM)
How it was run: as §1

Mirin + Phenformin = compound: N=C1NC(=O)/C(=C/c2ccc(O)cc2)S1 [Mirin] + N=C(N)NC(=N)NCCc1ccccc1 [Phenformin] (partner 250 µM)
How it was run: as §1

## UMC-11
Mirin + Navitoclax; first compound 0.25 µM
  relative viability: 0.324
Mirin + Navitoclax; first compound 0.7906 µM
  relative viability: 0.312
Mirin + Navitoclax; first compound 2.5 µM
  relative viability: 0.283
Mirin + Navitoclax; first compound 7.906 µM
  relative viability: 0.276
Mirin + Navitoclax; first compound 25 µM
  relative viability: 0.209
Mirin + Olaparib; first compound 0.25 µM
  relative viability: 0.382
Mirin + Olaparib; first compound 0.7906 µM
  relative viability: 0.316
Mirin + Olaparib; first compound 2.5 µM
  relative viability: 0.332
Mirin + Olaparib; first compound 7.906 µM
  relative viability: 0.279
Mirin + Olaparib; first compound 25 µM
  relative viability: 0.331
[1]; first compound 0.04 µM
  relative viability: 0.464
[1]; first compound 0.1265 µM
  relative viability: 0.495
[1]; first compound 0.4 µM
  relative viability: 0.417
[1]; first compound 1.265 µM
  relative viability: 0.445
[1]; first compound 4 µM
  relative viability: 0.406
Mirin + Phenformin; first compound 0.25 µM
  relative viability: 0.351
Mirin + Phenformin; first compound 0.7906 µM
  relative viability: 0.272
Mirin + Phenformin; first compound 2.5 µM
  relative viability: 0.334
Mirin + Phenformin; first compound 7.906 µM
  relative viability: 0.32
Mirin + Phenformin; first compound 25 µM
  relative viability: 0.236
